Data published in the METLIN SMRT retention time set (Domingo-Almenara et al. 2019).

Test: gradient 5% acetonitrile 3 min, to 50% in 2 min, to 85% in 15 min, held 3 min, 100 µL/min
Conditions: column: Zorbax Extend-C18 2.1 x 50 mm; eluents: water / acetonitrile, 0.1% formic acid
Outline: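 The mobile phases were water and acetonitrile, each with 0.1% formic acid, pumped at 100 μL/min through a Zorbax Extend-C18 column (2.1 × 50 mm, 1.8 μm). Pure standards were injected as mixtures of ~100 molecules and detected by a quadrupole time-of-flight mass spectrometer in positive and negative ionization mode. Retention time came from computationally picked adduct peaks, each inspected by hand.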

| SMILES | RP-LC retention time |
| --- | --- |
| CCCN(C)C(=O)C1CCN(c2cn[nH]c(=O)c2)CC1 | 597 s |
| O=C(Nc1ccc(NC(=O)N2CCC(C(=O)NCC3CC3)CC2)cc1)NC1CCCC1 | 679 s |
| CCCc1cc(=O)n(CC(=O)Nc2ncccc2C)cn1 | 578 s |
| O=S(=O)(NCC(O)C1CCCCC1)c1cccc2ccccc12 (stereo not drawn) | 902 s |
| Cc1cc(Cl)ccc1N1C(=O)CN(S(C)(=O)=O)CC1(C)C(=O)NC1CCCCCC1 (stereo not drawn) | 984 s |
| COc1ccc(C2C(C(=O)N3CCCCCC3)c3cc(OC)c(OC)cc3C(=O)N2C)cc1OC (stereo not drawn) | 748 s |
| COc1ccc(/C=C/c2cc(O)cc(OC3OC(CO)C(O)C(O)C3O)c2)cc1O (stereo not drawn) | 612 s |
| c1ccc(-c2n[nH]c(C3CCCN3)n2)cc1 (stereo not drawn) | 546 s |
| CCOc1ccc(NC(=O)Cn2nc3c(N4CCSCC4)nccn3c2=O)cc1 | 816 s |
| COc1ccc(/C=C/C(=O)Nc2ccccc2C(=O)O)cc1OC | 927 s |
| CCOC(=O)c1c(NC(=O)CSc2nnc(-c3cccnc3)o2)sc2c1CCC2 | 932 s |
| CCCN(CC1CCOC1)S(=O)(=O)c1cccc(F)c1 (stereo not drawn) | 850 s |
| COc1ccc(NS(=O)(=O)c2cc(-c3nnc(C(=O)N4CCCC4)o3)sc2C)c(OC)c1 | 846 s |
| COc1cc(OC)c(NC(=O)NC2CCN(c3ccc(C)cc3)C2=O)cc1Cl (stereo not drawn) | 873 s |
| CC1CN(c2ccc(Cl)cc2)c2nc3c(c(=O)n(C)c(=O)n3C)n2C1 (stereo not drawn) | 885 s |
| COc1ccc(OC)c(CNC(=O)c2cn3c(n2)COCC3)c1 | 639 s |
| Cc1nnc(NC(=O)c2ccc(S(=O)(=O)NCc3ccccn3)o2)s1 | 581 s |
| CCn1nnc2c(Nc3cccc(C(C)=O)c3)ncnc21 | 686 s |
| O=C(CN1C(=O)CCC1=O)Nc1ccc2c(c1)CN(C(=O)c1cccs1)CC2 | 630 s |

| SMILES | RP-LC retention time |
| --- | --- |
| Cc1ccc(-c2cc3c(N4CCCC(C(=O)NCCC5=CCCCC5)C4)nccn3n2)c(C)c1 (stereo not drawn) | 1150 s |
| Cc1cc(S(=O)(=O)N2CCC3(CC2)CCC(O)(CN2CCCC2)CC3)ccc1Cl | 706 s |
| Cc1ccc(F)c(NS(=O)(=O)c2cc(-c3[nH]ncc3C(=O)N(C)C)oc2C)c1 | 676 s |
| O=S(=O)(c1cc(-c2nnc(C3CCC3)o2)co1)N1CCC(N2CCCCC2)CC1 | 642 s |
| NS(=O)(=O)c1ccc(CCNC(=O)c2cnc3sccn3c2=O)cc1 | 568 s |
| O=C(CN1C(=O)C2CCCCN2c2ccc(C(=O)N3CCCC3)cc21)NCc1ccc(F)cc1Cl (stereo not drawn) | 863 s |
| COc1cccc(/C=C/c2nc(C#N)c(NCCN(C)C)o2)c1 | 654 s |
| CCOc1ccc(CNC(=O)C2CCN(S(=O)(=O)N(CC(C)C)CC(C)C)CC2)cc1OC | 1040 s |
| CCn1c(C(=O)NCCCOC(C)C)cc2c(-c3cccs3)nn(-c3ccccc3)c21 | 1150 s |
| COc1ccc(NC(=O)CN2C(=O)NC3(CCC(C)CC3)C2=O)c(OC)c1 (stereo not drawn) | 827 s |
| CC(C)(C)C(=O)Nc1cnc(-c2cccc(Cl)c2)nc1 | 1070 s |
| Cc1cc(C)cc(NC(=O)Cn2nc(N3CCSCC3)c3ccccc3c2=O)c1 | 1020 s |
| CCCNC(=O)C12CCC(C)(C(=O)C1)C2(C)C (stereo not drawn) | 657 s |
| Cn1nc(C(=O)N2CCCC(C(=O)NC3CC3)C2)c2c1CCN(C(=O)CCc1ccccc1)C2 (stereo not drawn) | 671 s |
| O=C(c1nnc(-c2ccc(S(=O)(=O)N3CCCC3)cc2)o1)N1CCN(C2CCCCC2)CC1 | 658 s |
| CCNc1nc(C)cc(N2CCN(S(=O)(=O)c3cc(C(C)C)ccc3C)CC2)n1 | 838 s |
| CC1CCc2nn(CC(=O)Nc3c(F)c(F)c(F)c(F)c3F)cc2C1 (stereo not drawn) | 934 s |
| CCOC(=O)N1CCN(c2ncc(C(=O)Nc3ccccc3)c(N)n2)CC1 | 692 s |
| Cc1ccc(-n2c(=O)n(CC(=O)NCCCN3CCOCC3)c3cccnc32)cc1 | 591 s |

Now from value to compound:

| RP-LC retention time | SMILES |
| --- | --- |
| 597 s | O=C(NCC1CCCO1)c1nc(-c2ccnc(N3CCCC3)c2)no1 (stereo not drawn) |
| 671 s | Cn1cc(-c2ccncc2)cc1C(=O)N1CCN(c2ccccc2Cl)CC1 |
| 748 s | Cc1ccc(C(=O)CC2(O)C(=O)Nc3c(C)cccc32)cc1 (stereo not drawn) |
| 958 s | Cc1ccc(NC(=O)Cn2nc3cc(-c4ccccc4)nc(C)n3c2=O)c(F)c1 |
| 609 s | Cc1ccc(-c2nc(-c3ccc4c(c3)oc(=O)n4C)no2)cc1F |
| 819 s | CCC(C)NC(=O)c1nc(Nc2cccc(C)c2)c2ccccc2n1 (stereo not drawn) |
| 910 s | CCN1C(=O)c2ccccc2Oc2ccc(C(=O)NCc3ccc(C)o3)cc21 |
| 716 s | O=C(CCNc1c(-c2ccc(F)cc2)nc2cnccn12)NCc1ccc2c(c1)OCO2 |
| 666 s | CCOc1ccc(S(=O)(=O)Nc2cccc(-c3cn4cccc(C)c4n3)c2)cc1 |
| 664 s | CCN(CC)CCNC(=O)C1CCCN(c2ccc(Sc3ccc(Br)cc3)nn2)C1 (stereo not drawn) |
| 609 s | COc1ccc(S(=O)(=O)N2CCN(CCc3cn(C)c4ncccc34)CC2)cc1 |
| 1250 s | Cc1ccsc1C(=O)N1CC(Oc2ccc(-c3nc(-c4ccccc4)no3)cc2)C1 |
| 1420 s | Cc1ccc(Cl)cc1N1CCN(c2ccc3cc(S(=O)(=O)N4CCCCC4C)ccc3n2)CC1 (stereo not drawn) |
| 982 s | CCOC(=O)c1nc(N(C)c2cccc(Cl)c2)c2ccccc2n1 |
| 663 s | O=C(Cc1ccc(Cl)cc1)N1CCN(c2nnc3ccccn23)CC1 |
| 614 s | COc1ccccc1-c1nnc(-c2ccc(-n3ccnc3)nc2)o1 |
| 718 s | CC(=O)Nc1ccc(C(=O)N2CCC3(CC2)N=C(c2ccc(Cl)cc2)NO3)cc1 |
| 1120 s | CSc1ccc(C2c3[nH]c4ccccc4c3CCN2C(=O)C2CC2)cc1 (stereo not drawn) |
| 874 s | COc1ccccc1-n1ccn(Cc2nc(-c3ccc(Cl)cc3)no2)c(=O)c1=O |
| 866 s | Cc1c(F)cccc1NC(=O)Nc1ccc(Nc2cc(-n3cccn3)ncn2)cc1 |
| 957 s | CCn1nnc2ccc(-c3noc(-c4cccc(C#N)c4)n3)cc21 |
| 923 s | O=S(=O)(c1cccc(F)c1)N1CC(n2cc(COc3ccc(F)cc3)nn2)C1 |
| 736 s | O=C(O)c1ccc(Nc2c(-c3cccc(Br)c3)nc3cnccn23)cc1 |
| 859 s | Cc1ccccc1S(=O)(=O)N1CCCN(c2ccc(=O)n(-c3ccccc3)n2)CC1 |
| 971 s | CC(C)(C)c1ccc(NS(=O)(=O)c2ccc(N)cc2)cc1 |

| RP-LC retention time | SMILES |
| --- | --- |
| 739 s | CC(=O)Nc1nc(-c2ccc3c(c2)N(C)C(=O)C(C)O3)cs1 (stereo not drawn) |
| 946 s | COc1cc(OC)c(NC(=O)N(C)CCc2noc(-c3ccccc3)n2)cc1Cl |
| 1070 s | Cc1ccc(-c2ccnc3c(C(=O)NCCc4c[nH]c5ccccc45)cnn23)cc1C |
| 976 s | COC(=O)C1=C(COc2ccc(C)cc2)NC(=O)NC1c1ccc(OC)c(OC)c1 (stereo not drawn) |
| 1040 s | CCc1ccc(CNC(=O)c2c(O)c3cccnc3[nH]c2=O)cc1 |
| 810 s | O=C(C1CCN(c2nc3ccc(-c4ccccc4)nc3s2)CC1)N1CCOCC1 |
| 871 s | O=C(Cn1nc2c(Oc3ccccc3)nccn2c1=O)NCCCc1ccccc1 |
| 884 s | CCC(=O)Oc1ccc(NC(=O)c2ccc(S(=O)(=O)N3CCCC3)cc2)cc1 |
| 688 s | CCCNC(=O)c1cc2n(n1)CC(C)(C(=O)NCc1ccc(F)cc1)N(C)C2=O (stereo not drawn) |
| 618 s | CCc1nc2cc(CNC(=O)Cc3ccccc3C)ccc2n1C |
| 719 s | O=C(c1cccc(Nc2c(-c3ccc(Cl)cc3)nc3cnccn23)c1)N1CCOCC1 |
| 809 s | COc1cc(OC)cc(C(=O)N(C)CCc2noc(C(=O)NCc3ccccc3)n2)c1 |
| 1200 s | COc1ccc(-c2noc(Cc3nc(-c4ccc(Br)cc4)cs3)n2)cc1OC |
| 1070 s | O=c1ccc(-c2ccc3c(c2)OCO3)nn1Cc1nc(-c2ccc(C(F)(F)F)cc2)no1 |
| 1030 s | O=C(CSc1ccc(F)cc1)N1CCC(COCc2ccccc2)CC1 |
| 1060 s | CCc1ccc(NC(=O)N2CCc3cn(CC)c4cccc(c34)C2)cc1 |
| 1010 s | COc1cc(OC)cc(-c2nc(C3CC(=O)N(c4ccc(C)cc4)C3)no2)c1 (stereo not drawn) |
| 771 s | Cn1nc(-c2nc(-c3ccc(F)cc3)no2)c2c1CCN(C(=O)NC1CCCC1)C2 |
| 792 s | CCc1ccc(NC(=O)Cn2c(-c3cnccn3)nc(C)c(C)c2=O)cc1 |
| 846 s | Cc1noc2ncnc(N3CCCC(C(=O)N4CCN(c5ccc(F)cc5)CC4)C3)c12 (stereo not drawn) |
| 1040 s | COc1ccc(-c2noc(Cc3nnc(-c4cccc(C)c4)o3)n2)cc1F |
| 774 s | CCOC(=O)c1c(C)[nH]c(C)c1S(=O)(=O)N1CCC(C(=O)Nc2ccc3c(c2)OCO3)CC1 |
| 1160 s | Cc1ccc(C)c(NC(=O)CSc2cc(N3CCN(c4ccccc4F)CC3)ncn2)c1 |
| 669 s | CCOC(=O)c1ccc(Nc2c(C(=O)N3CCCC(C)C3)cnc3nc(C)ccc23)cc1 (stereo not drawn) |
| 615 s | Cc1ccc(CNC(=O)Cn2ncc3c(N4CCN(c5ccccn5)CC4)ncnc32)cc1 |
